The assay concerns the target T1, human NPC1L1 (Homo sapiens, UniProt Q9UHC9).
T1 sequence (Q9UHC9 22-1359): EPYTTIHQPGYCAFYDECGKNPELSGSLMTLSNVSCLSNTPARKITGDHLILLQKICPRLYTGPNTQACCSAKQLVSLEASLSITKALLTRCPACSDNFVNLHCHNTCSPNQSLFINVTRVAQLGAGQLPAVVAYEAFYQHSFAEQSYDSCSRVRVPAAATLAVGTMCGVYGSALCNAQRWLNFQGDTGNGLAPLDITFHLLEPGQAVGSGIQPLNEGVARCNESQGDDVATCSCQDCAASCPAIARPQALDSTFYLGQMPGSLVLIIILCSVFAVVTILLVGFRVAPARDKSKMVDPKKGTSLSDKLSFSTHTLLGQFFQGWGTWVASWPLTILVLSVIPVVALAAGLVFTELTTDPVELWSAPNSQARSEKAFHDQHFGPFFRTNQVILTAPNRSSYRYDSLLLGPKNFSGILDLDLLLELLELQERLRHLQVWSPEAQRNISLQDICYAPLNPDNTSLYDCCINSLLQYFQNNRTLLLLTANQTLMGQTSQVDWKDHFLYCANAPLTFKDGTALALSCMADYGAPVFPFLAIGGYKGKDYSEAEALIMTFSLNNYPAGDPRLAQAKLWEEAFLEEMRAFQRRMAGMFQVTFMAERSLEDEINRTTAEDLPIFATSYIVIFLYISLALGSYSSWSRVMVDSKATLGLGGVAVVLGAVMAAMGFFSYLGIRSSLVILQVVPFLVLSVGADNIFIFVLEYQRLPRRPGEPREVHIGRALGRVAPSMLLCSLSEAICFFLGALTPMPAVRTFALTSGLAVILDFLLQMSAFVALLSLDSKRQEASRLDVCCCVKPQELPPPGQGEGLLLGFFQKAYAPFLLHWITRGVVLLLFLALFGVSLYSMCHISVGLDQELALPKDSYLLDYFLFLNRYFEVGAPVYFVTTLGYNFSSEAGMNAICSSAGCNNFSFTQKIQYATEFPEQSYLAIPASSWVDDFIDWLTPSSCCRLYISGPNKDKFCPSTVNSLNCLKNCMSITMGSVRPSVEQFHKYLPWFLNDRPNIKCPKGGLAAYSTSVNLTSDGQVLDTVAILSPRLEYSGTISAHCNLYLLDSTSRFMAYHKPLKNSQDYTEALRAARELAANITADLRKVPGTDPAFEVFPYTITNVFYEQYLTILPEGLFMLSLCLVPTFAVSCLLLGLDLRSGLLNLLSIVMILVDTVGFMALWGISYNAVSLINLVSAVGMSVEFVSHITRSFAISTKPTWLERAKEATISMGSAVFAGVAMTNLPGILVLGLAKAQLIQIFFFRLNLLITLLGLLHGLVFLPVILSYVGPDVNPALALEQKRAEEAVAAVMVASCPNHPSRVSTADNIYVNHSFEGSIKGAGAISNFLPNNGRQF
The assay can be described thus: 3H-cholesterol uptake inhibition in hNPC1L1/MDCKII cells. In kind it is cell-based.

pIC50: −log10 of the molar value.

For the compound `O=C1[C@H](CC[C@H](O)c2ccc(F)cc2)[C@@H](c2ccc(O)cc2)N1c1ccc(F)cc1` [Eze, ezetimibe], the pIC50 (as a rule, the IC50 on a negative log10 scale, so that one unit is a factor of ten) was 5.41.

Take `O=C(O)[C@H]1O[C@@H](Oc2ccc([C@@H]3[C@@H](CC[C@H](O)c4ccc(F)cc4)C(=O)N3c3ccc(F)cc3)cc2)[C@H](O)[C@@H](O)[C@@H]1O` [Eze-Glu, ezetimibe-glucuronide]: the negative logarithm of the IC50 (pIC50) was 6.17.

The values are drawn from publication PMC7304964 (Science Advances, 2020).
